Assay type in all cases: functional
Assay [1] has as its system Staphylococcus epidermidis. As to the kind of experiment: Antimicrobial activity against Staphylococcus epidermidis after 24 hrs by serial two-fold microbroth dilution method. On the technique in general: In broth dilution the organism is exposed to a series of concentrations in liquid medium.
In a further assay the test system is Candida albicans. As to the kind of experiment: Antimicrobial activity against Candida albicans after 48 hrs by serial two-fold microbroth dilution method.
The subject of the next assay is Klebsiella aerogenes. As to the kind of experiment: Antimicrobial activity against Enterobacter aerogenes after 24 hrs by serial two-fold microbroth dilution method.
The subject of another assay is Staphylococcus aureus. The assay is described as follows: Antimicrobial activity against Staphylococcus aureus after 24 hrs by serial two-fold microbroth dilution method.
The next assay concerns Klebsiella pneumoniae. The assay is described as follows: Antimicrobial activity against Klebsiella pneumoniae after 24 hrs by serial two-fold microbroth dilution method.

≈ marks a conversion by molar mass, not a printed value. Some results are limits rather than exact numbers.

By MIC is commonly meant the least concentration at which growth counts as inhibited. Read a low MIC as a more susceptible organism. With `CC1(C)[C@H]2Cc3c(nc(N)c(C#N)c3-c3ccc(F)cc3)[C@@H]1C2`, the minimal inhibitory concentration (MIC) is 125 µg/mL (≈ 407 µM) in assay [1]; 62.5 µg/mL (≈ 203 µM) in the assay on Candida albicans; 125 µg/mL (≈ 407 µM) against Klebsiella aerogenes; more than 125 µg/mL in the assay with Staphylococcus aureus; 125 µg/mL (≈ 407 µM) against Klebsiella pneumoniae.
Take `COc1ccccc1-c1c(C#N)c(N)nc2c1C[C@H]1C[C@@H]2C1(C)C`: the MIC in assay [1] was 125 µg/mL (≈ 391 µM); against Candida albicans it was 125 µg/mL (≈ 391 µM); against Klebsiella aerogenes it was more than 125 µg/mL; with Staphylococcus aureus, more than 125 µg/mL; in the assay on Klebsiella pneumoniae, more than 125 µg/mL.
For `Cc1ccc(-c2c(C#N)c(O)nc3c2C[C@H]2C[C@@H]3C2(C)C)cc1`, the minimum inhibitory concentration (MIC) in assay [1] was 125 µg/mL (≈ 411 µM); against Candida albicans, 125 µg/mL (≈ 411 µM); in the assay with Klebsiella aerogenes, more than 125 µg/mL; against Staphylococcus aureus, 125 µg/mL (≈ 411 µM); against Klebsiella pneumoniae, more than 125 µg/mL.
For the compound `COc1cccc(-c2c(C#N)c(O)nc3c2C[C@H]2C[C@@H]3C2(C)C)c1`, the MIC in assay [1] is 62.5 µg/mL (≈ 195 µM); against Candida albicans it was 125 µg/mL (≈ 390 µM); with Klebsiella aerogenes, 125 µg/mL (≈ 390 µM); against Staphylococcus aureus, 62.5 µg/mL (≈ 195 µM); with Klebsiella pneumoniae, 125 µg/mL (≈ 390 µM).
Turning to `COc1ccccc1-c1c(C#N)c(O)nc2c1C[C@H]1C[C@@H]2C1(C)C`, the MIC in assay [1] turned out to be 125 µg/mL (≈ 390 µM); against Candida albicans it was 62.5 µg/mL (≈ 195 µM); in the assay on Klebsiella aerogenes it was 125 µg/mL (≈ 390 µM); with Staphylococcus aureus it was 125 µg/mL (≈ 390 µM); in the assay with Klebsiella pneumoniae, 125 µg/mL (≈ 390 µM).
With `CC1(C)[C@H]2Cc3c(nc(O)c(C#N)c3-c3ccc(F)cc3)[C@@H]1C2`, the MIC was found to be 15.6 µg/mL (≈ 50.6 µM) in assay [1]; 31.3 µg/mL (≈ 102 µM) with Candida albicans; 62.5 µg/mL (≈ 203 µM) in the assay with Klebsiella aerogenes; 31.3 µg/mL (≈ 102 µM) with Staphylococcus aureus; 62.5 µg/mL (≈ 203 µM) against Klebsiella pneumoniae.
Regarding `CC1(C)[C@H]2Cc3c(nc(N)c(C#N)c3-c3ccc(Cl)cc3)[C@@H]1C2`, the MIC turned out to be 125 µg/mL (≈ 386 µM) in assay [1]; 62.5 µg/mL (≈ 193 µM) against Candida albicans; 125 µg/mL (≈ 386 µM) against Klebsiella aerogenes; 125 µg/mL (≈ 386 µM) in the assay on Staphylococcus aureus; 125 µg/mL (≈ 386 µM) with Klebsiella pneumoniae.
For the compound `COc1ccc(-c2c(C#N)c(N)nc3c2C[C@H]2C[C@@H]3C2(C)C)cc1OC`, the MIC in assay [1] is 125 µg/mL (≈ 358 µM); in the assay with Candida albicans it was 62.5 µg/mL (≈ 179 µM); in the assay on Klebsiella aerogenes, more than 125 µg/mL; against Staphylococcus aureus it was more than 125 µg/mL; against Klebsiella pneumoniae, more than 125 µg/mL.
On to `CC1(C)[C@H]2Cc3c(nc(O)c(C#N)c3-c3cccc(Br)c3)[C@@H]1C2`, for which the minimal inhibitory concentration (MIC) in assay [1] is 31.3 µg/mL (≈ 84.8 µM); against Candida albicans, 31.3 µg/mL (≈ 84.8 µM); with Klebsiella aerogenes it was 62.5 µg/mL (≈ 169 µM); with Staphylococcus aureus it was 62.5 µg/mL (≈ 169 µM); in the assay on Klebsiella pneumoniae, 62.5 µg/mL (≈ 169 µM).
In the assay on Candida albicans, `CO[C@H]1/C=C/O[C@@]2(C)Oc3c(C)c(O)c4c(O)c(c(/C=N/N5CCN(C)CC5)c(O)c4c3C2=O)NC(=O)/C(C)=C\C=C\[C@H](C)[C@H](O)[C@@H](C)[C@@H](O)[C@@H](C)[C@H](OC(C)=O)[C@@H]1C` [RIFAMPIN] registered an MIC of 3.9 µg/mL (≈ 4.74 µM).
Consider `CC1(C)[C@H]2Cc3c(nc(O)c(C#N)c3-c3ccccc3)[C@@H]1C2`, for which the MIC was 125 µg/mL (≈ 430 µM) in assay [1]; 125 µg/mL (≈ 430 µM) against Candida albicans; more than 125 µg/mL against Klebsiella aerogenes; 125 µg/mL (≈ 430 µM) against Staphylococcus aureus; more than 125 µg/mL in the assay with Klebsiella pneumoniae.
Regarding `Cc1ccc(-c2c(C#N)c(N)nc3c2C[C@H]2C[C@@H]3C2(C)C)cc1`, the MIC in assay [1] is more than 125 µg/mL; against Candida albicans it was 125 µg/mL (≈ 412 µM); in the assay with Klebsiella aerogenes it was more than 125 µg/mL; with Staphylococcus aureus, more than 125 µg/mL; against Klebsiella pneumoniae, more than 125 µg/mL.
For the compound `CC1(C)[C@H]2Cc3c(nc(N)c(C#N)c3-c3ccccc3Cl)[C@@H]1C2`, the minimum inhibitory concentration (MIC) (in assay [1]; in the assay with Candida albicans; against Klebsiella aerogenes; in the assay with Staphylococcus aureus; against Klebsiella pneumoniae) was 125 µg/mL (≈ 386 µM) throughout.
For the compound `CC1(C)[C@H]2Cc3c(nc(O)c(C#N)c3-c3cccc(O)c3)[C@@H]1C2`, the MIC in assay [1] was found to be 31.3 µg/mL (≈ 102 µM); in the assay on Candida albicans, 62.5 µg/mL (≈ 204 µM); in the assay with Klebsiella aerogenes it was 62.5 µg/mL (≈ 204 µM); against Staphylococcus aureus it was 62.5 µg/mL (≈ 204 µM); against Klebsiella pneumoniae, 62.5 µg/mL (≈ 204 µM).
Regarding `CC1(C)[C@H]2Cc3c(nc(N)c(C#N)c3-c3cccc(O)c3)[C@@H]1C2`, the MIC in assay [1] was 125 µg/mL (≈ 409 µM); against Candida albicans, 125 µg/mL (≈ 409 µM); in the assay with Klebsiella aerogenes it was 125 µg/mL (≈ 409 µM); in the assay on Staphylococcus aureus, more than 125 µg/mL; in the assay on Klebsiella pneumoniae it was 125 µg/mL (≈ 409 µM).
On to `CC1(C)[C@H]2Cc3c(nc(O)c(C#N)c3-c3ccc(F)c(F)c3)[C@@H]1C2`, for which the MIC in assay [1] was 15.6 µg/mL (≈ 47.8 µM); against Candida albicans, 15.6 µg/mL (≈ 47.8 µM); in the assay with Klebsiella aerogenes, 62.5 µg/mL (≈ 192 µM); against Staphylococcus aureus, 31.3 µg/mL (≈ 95.9 µM); in the assay on Klebsiella pneumoniae it was 62.5 µg/mL (≈ 192 µM).
For `CC1(C)[C@H]2Cc3c(nc(O)c(C#N)c3-c3ccc(Br)cc3)[C@@H]1C2`, the MIC in assay [1] was found to be 62.5 µg/mL (≈ 169 µM); with Candida albicans, 31.3 µg/mL (≈ 84.8 µM); in the assay with Klebsiella aerogenes, 125 µg/mL (≈ 339 µM); against Staphylococcus aureus it was 62.5 µg/mL (≈ 169 µM); in the assay on Klebsiella pneumoniae, 62.5 µg/mL (≈ 169 µM).
Consider `NC[C@H]1O[C@H](O[C@H]2[C@H](O)[C@@H](O[C@H]3O[C@H](CO)[C@@H](O)[C@H](N)[C@H]3O)[C@H](N)C[C@@H]2N)[C@H](O)[C@@H](O)[C@@H]1O` [KANAMYCIN], for which the MIC in assay [1] came to 3.9 µg/mL (≈ 8.05 µM); against Klebsiella aerogenes, 3.9 µg/mL (≈ 8.05 µM); against Staphylococcus aureus it was 2 µg/mL (≈ 4.13 µM); against Klebsiella pneumoniae, 2 µg/mL (≈ 4.13 µM).
On to `CC1(C)[C@H]2Cc3c(nc(N)c(C#N)c3-c3ccccc3)[C@@H]1C2`, for which the minimal inhibitory concentration (MIC) in assay [1] was 125 µg/mL (≈ 432 µM); with Candida albicans it was 125 µg/mL (≈ 432 µM); against Klebsiella aerogenes, more than 125 µg/mL; in the assay on Staphylococcus aureus, more than 125 µg/mL; in the assay with Klebsiella pneumoniae, more than 125 µg/mL.
Regarding `CC1(C)[C@H]2Cc3c(nc(N)c(C#N)c3-c3ccc(F)c(F)c3)[C@@H]1C2`, the minimum inhibitory concentration (MIC) in assay [1] is 125 µg/mL (≈ 384 µM); against Candida albicans it was 31.3 µg/mL (≈ 96.2 µM); in the assay with Klebsiella aerogenes it was 125 µg/mL (≈ 384 µM); with Staphylococcus aureus, more than 125 µg/mL; against Klebsiella pneumoniae, 125 µg/mL (≈ 384 µM).
`COc1cccc(-c2c(C#N)c(N)nc3c2C[C@H]2C[C@@H]3C2(C)C)c1`: the MIC (in assay [1]; in the assay on Candida albicans; in the assay on Klebsiella aerogenes; with Staphylococcus aureus; in the assay with Klebsiella pneumoniae) was 125 µg/mL (≈ 391 µM) in each case.
Turning to `CC1(C)[C@H]2Cc3c(nc(O)c(C#N)c3-c3ccc(Cl)cc3)[C@@H]1C2`, the MIC in assay [1] was found to be 31.3 µg/mL (≈ 96.4 µM); against Candida albicans, 31.3 µg/mL (≈ 96.4 µM); against Klebsiella aerogenes it was 62.5 µg/mL (≈ 192 µM); with Staphylococcus aureus, 31.3 µg/mL (≈ 96.4 µM); against Klebsiella pneumoniae, 62.5 µg/mL (≈ 192 µM).
Turning to `CC1(C)[C@H]2Cc3c(nc(N)c(C#N)c3-c3cccc(Br)c3)[C@@H]1C2`, the MIC in assay [1] was 125 µg/mL (≈ 339 µM); with Candida albicans, 125 µg/mL (≈ 339 µM); against Klebsiella aerogenes, 125 µg/mL (≈ 339 µM); with Staphylococcus aureus, more than 125 µg/mL; against Klebsiella pneumoniae it was 125 µg/mL (≈ 339 µM).
For `CC1(C)[C@H]2Cc3c(nc(N)c(C#N)c3-c3ccc(Br)cc3)[C@@H]1C2`, the MIC in assay [1] was determined as 125 µg/mL (≈ 339 µM); in the assay with Candida albicans, 62.5 µg/mL (≈ 170 µM); with Klebsiella aerogenes it was 125 µg/mL (≈ 339 µM); against Staphylococcus aureus, 125 µg/mL (≈ 339 µM); in the assay with Klebsiella pneumoniae, 125 µg/mL (≈ 339 µM).
As for `CC1(C)[C@H]2CCC(=O)[C@@H]1C2`, the MIC (in assay [1]; against Candida albicans; against Klebsiella aerogenes; against Staphylococcus aureus; against Klebsiella pneumoniae) was more than 125 µg/mL each time.
For `CC1(C)[C@H]2Cc3c(nc(O)c(C#N)c3-c3ccc(C(F)(F)F)cc3)[C@@H]1C2`, the MIC in assay [1] was 125 µg/mL (≈ 349 µM); against Candida albicans it was 125 µg/mL (≈ 349 µM); against Klebsiella aerogenes it was 125 µg/mL (≈ 349 µM); with Staphylococcus aureus it was 125 µg/mL (≈ 349 µM); against Klebsiella pneumoniae, more than 125 µg/mL.
For the compound `CC1(C)[C@H]2Cc3c(nc(O)c(C#N)c3-c3ccccc3Cl)[C@@H]1C2`, the MIC in assay [1] is 125 µg/mL (≈ 385 µM); in the assay with Candida albicans, 125 µg/mL (≈ 385 µM); against Klebsiella aerogenes it was 62.5 µg/mL (≈ 192 µM); with Staphylococcus aureus, 125 µg/mL (≈ 385 µM); against Klebsiella pneumoniae, 125 µg/mL (≈ 385 µM).
With `CC1(C)[C@H]2Cc3c(nc(O)c(C#N)c3-c3ccc(Cl)cc3Cl)[C@@H]1C2`, the MIC was found to be 31.3 µg/mL (≈ 87.1 µM) in assay [1]; 62.5 µg/mL (≈ 174 µM) in the assay on Candida albicans; 62.5 µg/mL (≈ 174 µM) against Klebsiella aerogenes; 62.5 µg/mL (≈ 174 µM) in the assay with Staphylococcus aureus; 125 µg/mL (≈ 348 µM) in the assay with Klebsiella pneumoniae.
